Results published in US20190275040A1, “COMPOUNDS AND METHODS FOR TREATING OR PREVENTING ALZHEIMER'S DISEASE” (YALE UNIVERSITY, priority 2016, published 2019).
Values belong to the compound of their own block, whether it stands above or below them.

What was measured:
[1] = tested on: primary hippocampal neurons; assay: Dendritic spine motility in primary hippocampal neurons; format: cell-based, mouse
From the text: FIG. 11A: Representative images of dendritic spine motility by standard deviation projection of time-lapse image. […] The standard deviation value for each pixel is shown by thermal color scale. […] FIG. 11B: Quantification of spine motility, expressed as % of changed area of spines with subtraction of changed area of dendritic shaft as background (changed area=(ΔAspine/Aspine×100)−(ΔAshaft/Ashaft×100)). […] Data are graphed as mean±SEM (n=7-8 coverslips from 3 different cultures). **p<0.01, ***p<0.001 by ANOVA, Tukey's multiple comparisons test.
FIG. 18A: Representative images of dendritic spine motility by standard deviation projection of time stacks. […] To display the spine motility in time-lapse images, the time stack images over 5 min of each conditions were projected to standard deviation using Image J and color coated with thermal color scale. […] FIG. 18B: Quantification of spine motility, expressed as % of changed area of spines with subtraction of dendritic shaft area change (changed area=(ΔAspine/Aspine×100)−(ΔAshaft/Ashaft×100)). Mean±SEM (n=5 coverslips).
Time-lapse images were acquired for 5 minutes with 10 second intervals in Tyrode's solution using 60× objective lens driven Volocity software. Time-lapse images (31 time frames over 5 min) were subjected to standard deviation (STD) projection to visualize spine motility in single image and colorized with thermal scale using ImageJ software (NIH). Quantitative measurements of spine motility by calculating the changed area at individual dendritic spines were conducted by using ImageJ software by an observer unaware of treatment group.

[2] = tested on: cultured hippocampal neurons; assay: Graf1c knockdown-induced dendritic spine loss in cultured hippocampal neurons; format: cell-based, mouse; conditions: 10 μM
Method: FIGS. 17A-17B illustrate the finding that Graf1 is a functional GTPase activating protein (GAP) in mature neurons and regulates dendritic spine formation. FIG. 17A: Representative fluorescence images of cultured hippocampal neurons. […] Scale bar, 10 μm. FIG. 17B: Quantification of dendritic spine density in the transfected neurons.
Next, it was evaluated whether RhoA activity is necessary for Pyk2-induced decrease in dendritic spine density. As described elsewhere herein, overexpression of GFP-Pyk2 induces loss of half of hippocampal neuron dendritic spines (FIGS. 10E-10F). […] Therefore, Pyk2 interacts with Graf1c within dendritic spines to allow increased RhoA-GTP levels and subsequent reduced synapse density.

Pyk2 [3] = biological target: T1, Pyk2 (Homo sapiens, UniProt Q14289); assay: Pyk2 Ki of kinase inhibitors (CHEMBL & IUPHR-BPS database screen, Table 2); format: biochemical; conditions: Pyk2 versus Fyn
Pyk2 [4] = biological target: T1, Pyk2; conditions: read-out: Pyk2 Ki; cited from earlier work
APP/PS1 mice = conditions: cited from earlier work

T1 sequence (Q14289 whole entry, species assumed): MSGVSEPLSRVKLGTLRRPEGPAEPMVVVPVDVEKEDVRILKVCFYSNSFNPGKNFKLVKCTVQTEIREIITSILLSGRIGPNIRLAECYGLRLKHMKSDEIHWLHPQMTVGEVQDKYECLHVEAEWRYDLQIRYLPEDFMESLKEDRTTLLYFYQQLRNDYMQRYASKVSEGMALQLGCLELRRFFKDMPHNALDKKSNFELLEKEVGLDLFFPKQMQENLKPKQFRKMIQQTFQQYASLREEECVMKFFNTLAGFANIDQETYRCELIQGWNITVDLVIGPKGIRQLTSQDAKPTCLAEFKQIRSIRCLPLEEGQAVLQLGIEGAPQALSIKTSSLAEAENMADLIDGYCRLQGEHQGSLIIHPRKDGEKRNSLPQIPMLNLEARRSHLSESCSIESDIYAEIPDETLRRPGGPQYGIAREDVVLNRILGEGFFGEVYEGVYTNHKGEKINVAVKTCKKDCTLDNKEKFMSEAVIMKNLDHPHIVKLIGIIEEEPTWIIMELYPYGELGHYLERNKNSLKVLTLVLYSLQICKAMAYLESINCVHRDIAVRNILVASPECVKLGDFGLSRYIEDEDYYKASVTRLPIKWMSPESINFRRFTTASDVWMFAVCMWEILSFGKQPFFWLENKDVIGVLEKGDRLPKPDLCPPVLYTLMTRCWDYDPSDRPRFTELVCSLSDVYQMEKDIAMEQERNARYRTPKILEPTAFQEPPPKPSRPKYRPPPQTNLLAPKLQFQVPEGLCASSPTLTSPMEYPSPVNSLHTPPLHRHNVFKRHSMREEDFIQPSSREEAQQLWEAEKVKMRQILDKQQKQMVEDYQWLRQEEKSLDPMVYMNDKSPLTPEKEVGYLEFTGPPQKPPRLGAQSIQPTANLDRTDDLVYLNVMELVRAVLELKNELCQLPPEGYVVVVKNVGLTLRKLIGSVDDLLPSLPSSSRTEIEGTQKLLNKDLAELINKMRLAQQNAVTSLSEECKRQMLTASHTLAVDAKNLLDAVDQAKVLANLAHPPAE

SMILES: C[C@@H](N)[C@H]1CC[C@H](C(=O)Nc2ccncc2)CC1 [Compound Y27632]
Aβo-induced decrease in spine motility ([1]; Aβo 24 hours, PF-719 1 μM, Y27632 10 μM): rescue fully the Aβo-induced decrease in spine motility | Graf1c-knockdown-induced spine loss [2]: rescue Graf1c-knockdown-induced spine loss

Inhibition Character (Pyk2 [3]): dual Pyk2-Fyn
SMILES: Cc1cnc(Nc2cccc(S(N)(=O)=O)c2)nc1Nc1ccc(OCC(N)=O)cc1 [Compound 8, 2-(4-((5-methyl-2-((3-sulfamoylphenyl)amino)pyrimidin-4-yl)amino)phenoxy)acetamide]

SMILES: C[C@]12O[C@H](C[C@]1(O)CO)n1c3ccccc3c3c4c(c5c6ccccc6n2c5c31)CNC4=O [Lestaurtinib, (5S,6S,8R)-6-Hydroxy-6-(hydroxymethyl)-5-methyl-7,8,14,15-tetrahydro-5H-16-oxa-4b,8a,14-triaza-5,8-methanodibenzo[b,h]cycloocta[jkl]cyclopenta[e]-as-indacen-13(6H)-one]
Inhibition Character (Pyk2 [3]): dual Pyk2-Fyn

SMILES: C=C1[C@@H](C)[C@H]2[C@H](Cc3ccccc3)NC(=O)[C@]23[C@H](OC(C)=O)/C=C/[C@@](C)(O)C(=O)[C@@H](C)C/C=C/[C@H]3[C@@H]1O [cytochalasin D]
spine motility (actin dependence) ([1]; 1 μm Cytochalasin D for 20 minutes, no Aβo): near complete cessation of spine motility

SMILES: Cn1cc(-c2cnc(N)c3c(-c4ccc(NC(=O)Nc5ccc(OC(F)F)cc5)cc4)csc23)cn1 [Compound 6, 1-(4-(4-amino-7-(1-methyl-1H-pyrazol-4-yl)thieno[3,2-c]pyridin-3-yl)phenyl)-3-(4-(difluoromethoxy)phenyl)urea]
Inhibition Character (Pyk2 [3]): dual Pyk2-Fyn

Inhibition Character (Pyk2 [3]): dual Pyk2-Fyn
SMILES: Cc1cc(N2CCOCC2)cc2nc(-c3c(NCC(O)c4cccc(Cl)c4)cc[nH]c3=O)[nH]c12 (centres unmarked) [Compound 5, 4-((2-(3-chlorophenyl)-2-hydroxyethyl)amino)-3-(7-methyl-5-morpholino-1H-benzo[d]imidazol-2-yl)pyridin-2(1H)-one]

Inhibition Character (Pyk2 [3]): Fyn selective
SMILES: CN1CCN(CCOc2cc(OC3CCOCC3)c3c(Nc4c(Cl)ccc5c4OCO5)ncnc3c2)CC1 [AZD-0530, N-(5-chloro-1,3-benzodioxol-4-yl)-7-[2-(4-methyl-1-piperazinyl)ethoxy]-5-[(tetrahydro-2H-pyran-4-yl)oxy]-4-quinazolinamine]
Ki (Pyk2 [4]): > 1000 nM | memory deficits and synapse loss in APP/PS1 mice (APP/PS1 mice; mouse, in vivo): rescuing memory deficits and synapse loss | activated p-Pyk2 level in transgenic mice (APP/PS1 mice; transgenic mice have a two-fold increase): reduces this level to that of WT mice
